From patent publication US12678512B2, “Anti-EGFR antibody-drug conjugate with a cyclic dinucleotide derivative” (DAIICHI SANKYO COMPANY, LIMITED, priority 2020, dated 2026)

Tests used:
[1] = biological target: human STING (THP1-Dual cells, HAQ mutant; IRF3 pathway) (Homo sapiens, UniProt Q86WV6, G230A/H232R/R293Q/R71H); assay: Reporter gene assay, human STING agonist activity in THP1-Dual cells
Method: Human STING agonist activity was evaluated using THP1-Dual™ cells (HAQ mutant) (InvivoGen, CA, US), in which activation of the interferon regulatory factor-3 (IRF3) pathway, which is downstream of the STING pathway, could be checked.
The assay was conducted as follows. First, each test compound diluted in PBS was dispensed at 20 μL/well of a transparent 96-well plate (Corning, NY, US). […] The cells were cultured for 24 h under conditions at 37° C. and 5% CO2, and then centrifuged to collect the supernatant. Next, 6 μL of the collected supernatant was added to a white 384-well plate, and 15 μL of QUANTI-Luc (InvivoGen) solution was added thereto. After well mixing, the luminescence was measured using a plate reader (PerkinElmer, MA, US).

[2] = biological target: T1, human wild-type (Hu-WT) STING C-terminal binding domain protein (Homo sapiens, UniProt Q86WV6, H232R); assay: Protein thermal shift assay, STING binding; conditions: test compound final concentration 0.5 mM
T1 construct: made in house; host or cells: E. coli Rosetta 2 (DE3), co-expressed with BirA
T1 sequence (Q86WV6 with tags, fused parts or gaps H232R): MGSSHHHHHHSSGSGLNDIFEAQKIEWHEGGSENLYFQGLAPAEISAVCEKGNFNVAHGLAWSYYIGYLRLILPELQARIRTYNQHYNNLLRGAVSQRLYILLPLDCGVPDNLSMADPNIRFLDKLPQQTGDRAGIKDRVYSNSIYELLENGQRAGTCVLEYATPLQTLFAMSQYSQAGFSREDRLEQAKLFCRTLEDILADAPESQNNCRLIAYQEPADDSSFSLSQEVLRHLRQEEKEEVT
Method: (§1) Each expression strain was added to TB broth containing 100 μg/mL ampicillin, 50 μg/mL streptomycin, and 30 μg/mL kanamycin, and cultured at 37° C. The expression was then induced with 100 μM IPTG, and the cells were further cultured at 16° C.
(§2) The culture broth was centrifuged, and the obtained bacteria were suspended in 50 mM HEPES pH8.0, 500 mM NaCl, 20 mM imidazole, 1 mM DTT, 5% (w/v) glycerol, and cOmplete EDTA free, and then frozen and thawed. After the addition of lysozyme and DNase I, the proteins were extracted by sonication, and the supernatant was collected by centrifugation. The resulting supernatant was purified through a HisTrap FF column (GE Healthcare) using an AKTAexpress chromatography system (GE Healthcare, IL, US), made to pass through a Superdex200 16/60 column (GE Healthcare), and eluted with a buffer (20 mM HEPES pH 7.5, 120 mM NaCl, 20% glycerol, 0.8 mM DTT). […] The protein concentration was measured using a Nanodrop 2000 (Thermo Fisher Scientific, MA, US), and each protein was frozen and stored at −80° C. until use.
(§3) The binding of a compound to each STING C-terminal binding domain protein was determined by the protein thermal shift assay, which uses the increase in the thermal denaturation temperature of the protein as an indicator.
(§4) Specifically, an assay buffer (20 mM Tris-HCl pH7.5, 120 mM NaCl) was applied to wells of a 384-well real-time PCR plate. Next, 3 μL of each test compound (final concentration 0.5 mM), 3 μL of SYPRO Orange Protein Gel Stain (Thermo Fisher Scientific) (final concentration: 20× concentration), and 6 μL of the STING protein were mixed in each well while using a plate shaker. A real-time PCR system (Thermo Fisher Scientific) was used to increase the temperature from 25° C. to 95° C. at a rate of 0.03° C. per second, and the thermal denaturation temperature of the protein was measured using the fluorescence emitted by SYPRO Orange as an indicator. The measured values were analyzed using Protein Thermal Shift software (Thermo Fisher Scientific) to determine Tm (the midpoint of the unfolding transition) (° C.) as the temperature at which the rate of increase in fluorescence intensity reached its maximum value. The shift of Tm by the test compound was calculated as ΔTm (° C.) by subtracting, from the Tm value of each compound, the Tm value of the well without the compound.

[3] = biological target: T2, human HAQ mutant (Hu-HAQ) STING C-terminal binding domain protein (Homo sapiens, UniProt Q86WV6, G230A/H232R/R293Q); assay: Protein thermal shift assay, STING binding; conditions: test compound final concentration 0.5 mM
T2 construct: made in house; host or cells: E. coli Rosetta 2 (DE3), co-expressed with BirA
T2 sequence (Q86WV6 with tags, fused parts or gaps G230A/H232R/R293Q): as the sequence (Q86WV6 with tags, fused parts or gaps H232R) above, with G131A, R194Q counted along it
Method: as §1, §2, §3, §4

[4] = biological target: T3, mouse wild type (Ms-WT) STING C-terminal binding domain protein (Mus musculus, UniProt Q3TBT3); assay: Protein thermal shift assay, STING binding; conditions: test compound final concentration 0.5 mM
T3 construct: made in house; host or cells: E. coli Rosetta 2 (DE3), co-expressed with BirA
T3 sequence (Q3TBT3 with tags, fused parts or gaps): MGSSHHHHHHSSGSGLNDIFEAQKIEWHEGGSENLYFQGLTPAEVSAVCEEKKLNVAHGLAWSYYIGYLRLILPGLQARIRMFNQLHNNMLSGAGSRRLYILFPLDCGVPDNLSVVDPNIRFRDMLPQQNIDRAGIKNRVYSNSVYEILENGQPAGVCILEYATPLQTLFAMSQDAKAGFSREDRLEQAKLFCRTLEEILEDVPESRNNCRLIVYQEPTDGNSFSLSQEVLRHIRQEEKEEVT
Method: as §1, §2, §3, §4

[5] = biological target: T4, human REF mutant (Hu-REF) STING C-terminal binding domain protein (Homo sapiens, UniProt Q86WV6); assay: Protein thermal shift assay, STING binding; conditions: test compound final concentration 0.5 mM
T4 construct: made in house; host or cells: E. coli Rosetta 2 (DE3), co-expressed with BirA
T4 sequence (Q86WV6 with tags, fused parts or gaps, change not shown): as the sequence (Q86WV6 with tags, fused parts or gaps H232R) above, with R133H counted along it
Method: as §1, §2, §3, §4

[6] = system: CT26.WT-hEGFR cells subcutaneously transplanted in BALB/c mouse; assay: Anti-tumor test (2); type: in vivo; conditions: 1.5 mg/kg into the tail vein once on Day 12, FIG. 15
Text: CT26.WT (CRL2638), a mouse colon cancer cell line purchased from American Type Culture Collection, was transduced with the human EGFR gene (NP_005219.2) to establish CT26.WT-hEGFR cells. Specifically, a pLVSIN lentiviral vector (Takara Bio), in which the human EGFR gene was inserted, was constructed. Next, Lenti-X293T cell line (Takara Bio) was transfected with the vector using a Lentiviral High Titer Packaging Mix (Takara Bio). Then, the supernatant was collected, and the CT26.WT was infected therewith. The cells were maintained in medium supplemented with 10 μg/mL puromycin (Thermo Fisher Scientific).
CT26.WT-hEGFR cells were suspended in saline. Ne×t, 3×10^6 cells were transplanted subcutaneously into the right axillary region of each BALB/c mouse (Day 0), and random grouping was conducted after 12 days. […] In addition, the vehicle group was provided in which acetate buffer was administered. The number of mice in each group was 8.

[7] = system: mouse bone marrow-derived dendritic cells; assay: Co-culture assay with CT26.WT or CT26.WT-hCD70 cell line and mouse bone marrow-derived dendritic cells; type: cell-based; conditions: conditions DC, 20 h incubation, FIG. 12
Text: CT26.WT (CRL2638), a mouse colon cancer cell line purchased from American Type Culture Collection, was transduced with human CD70 gene (NP_001243) to establish CT26.WT-hCD70 cells. Specifically, a pLVSIN lentiviral vector (Takara Bio), in which the human CD70 gene was inserted, was constructed. Next, Lenti-X293T cell line (Takara Bio) was transfected with the vector using a Lentiviral High Titer Packaging Mix (Takara Bio). Then, the supernatant was collected, and the CT26.WT was infected therewith. The cells were maintained in medium supplemented with 10 μg/mL puromycin (Thermo Fisher Scientific).
Mouse bone marrow cells were collected from the femur of 5-week-old female BALB/c mice (BALB/cAnNCrlCrlj) (Charles River, Japan). The mouse bone marrow cells were cultured in the presence of […] murine GM-CSF (PEPROTECH) for 7 days to obtain mouse bone marrow-derived dendritic cells. 1.5×10^5 CT26.WT or CT26.WT-hCD70 cell line cells and 1×10^5 mouse bone marrow-derived dendritic cells were seeded per well of a 96-well plate. Each test compound was diluted in RPMI medium (Invitrogen), and 200 μL was added. […] The cells were washed with FCM buffer again and analyzed using a Fortessa (BD Biosciences). MFI of CD86 in CD45^+, CD11c^+, and I-A/I-E^+ fraction was calculated. Then, the ratio with respect to the test compound-free group was calculated. […]

[8] = system: CT26.WT-chimeraEGFR cells subcutaneously transplanted in BALB/c mouse; assay: Anti-tumor test (5); type: in vivo; conditions: 0.01 mg/kg into the tail vein once on Day 7, FIG. 24
Method: Then, the supernatant was collected, and the CT26.WT was infected therewith.
In addition, the vehicle group was provided in which acetate buffer was administered. The number of mice in each group was 8.

human STING (THP1-Dual cells, HAQ mutant; IRF3 pathway), sequence (Q86WV6 whole entry R71H/G230A/H232R/R293Q, the tested form may be a part): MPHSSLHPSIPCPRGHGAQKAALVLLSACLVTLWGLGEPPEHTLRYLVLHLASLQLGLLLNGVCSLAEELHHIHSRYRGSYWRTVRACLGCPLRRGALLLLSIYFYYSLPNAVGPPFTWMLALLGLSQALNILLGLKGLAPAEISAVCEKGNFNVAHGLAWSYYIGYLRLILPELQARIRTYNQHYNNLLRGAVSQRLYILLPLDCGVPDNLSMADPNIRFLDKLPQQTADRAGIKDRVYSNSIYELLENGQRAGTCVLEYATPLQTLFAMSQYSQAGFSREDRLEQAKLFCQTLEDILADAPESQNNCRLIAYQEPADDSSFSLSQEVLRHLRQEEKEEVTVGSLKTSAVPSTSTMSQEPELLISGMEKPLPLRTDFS

Compound | EC50 [1] | ΔTm at 500 µM [2] | ΔTm at 500 µM [3] | ΔTm at 500 µM [4] | ΔTm at 500 µM [5] | tumor growth (tumor volume) [6] | CD86 expression on mouse dendritic cells (ratio of MFI with respect to the compound-free group) [7] | tumor growth (tumor volume) [8]
O=c1c2ncn([C@@H]3O[C@@H]4COP(=O)(S)O[C@H]5[C@@H](O)[C@H](n6cc7c8c(ncnc86)NCCC7)O[C@@H]5COP(=O)(S)O[C@@H]3[C@@H]4O)c2ncn1CCO (single isomer, unassigned) [Compound 6b] | 2100 nM | 8.4 °C | 11.3 °C | 12.9 °C | 3.4 °C |  |  | 
anti-EGFR antibody 1: IgG1 isotype with LALA mutation, produced with reference to the Vectibix review report; light chain SEQ ID NO: 9, heavy chain SEQ ID NO: 10 |  |  |  |  |  | tumor growth was not inhibited |  | 
O=c1c2ncn([C@@H]3O[C@@H]4COP(=O)(S)O[C@H]5[C@@H](F)[C@H](n6cc7c8c(ncnc86)NCCC7)O[C@@H]5COP(=O)(S)O[C@@H]3[C@@H]4O)c2ncn1CCO (single isomer, unassigned) [Compound 34a] | 200 nM |  |  |  |  |  | caused an increase in CD86 expression on mouse dendritic cells in all conditions | tumor growth was not inhibited
O=C(CO)NCCn1cnc2c(ncn2[C@@H]2O[C@@H]3COP(=O)(S)O[C@H]4[C@@H](F)[C@H](n5cc6c7c(ncnc75)SCCC6)O[C@@H]4COP(=O)(S)O[C@@H]2[C@@H]3O)c1=O (single isomer, unassigned) [Compound 50b] |  |  | 15.3 °C | 7.4 °C | 6.3 °C |  |  | 
